Reference: article PMC10683028 (Journal of Medicinal Chemistry, 2023)
Values after ≈ are worked out from the molar mass of the structure shown. Read-outs that look alike come from different tables or passages of the source.

Experiments:
[1] = pH 7.4
Experimental: Test compounds were prepared as 0.5 mM solutions in 50:50 acetonitrile:water and analyzed by reversed-phase HPLC-UV (wavelength 254 nm) using a Phenomenex Luna C18 100 Å 150 × 4.6 mm 5 μm column with a gradient of aqueous phase (50 mM ammonium acetate, pH 7.4) and mobile phase (acetonitrile) as described.[41],[42]

in vitro = settings: PAMPA, pH 7.4
Experimental: (§1) In vitro ADME experiments were performed exactly as reported.[38]−[40]

[2] = mouse
Experimental: Murine pharmacokinetic studies were performed exactly as reported.[40]

physchem = settings: aqueous medium at pH 7.4, pH 7.4
Experimental: as §1

Structure (SMILES) | CHI-logDpH7.4 [1] | Papp (in vitro) [×10⁻⁶ cm/s] | also measured
COc1ccc(CCN(C)C(=O)c2nc(-c3ccc(OC)c(OC)c3)no2)cc1OC [compound 51, 3-(3,4-Dimethoxyphenyl)-N-[2-(3,4-dimethoxyphenyl)ethyl]-N-methyl-1,2,4-oxadiazole-5-carboxamide] | 2.6 |  | 
COc1ccc(-c2noc(C(=O)NCCc3ccc(C(=O)N4CC(F)C4)cc3)n2)cc1OC [compound 16, 3-(3,4-Dimethoxyphenyl)-N-(4-(3-fluoroazetidine-1-carbonyl)phenethyl)-1,2,4-oxadiazole-5-carboxamide] | 2.2 | 8.5 | 
COc1ccc(-c2noc(C(=O)NCCc3ccc(C(=O)N4CC(OC)C4)cc3)n2)cc1OC1CCC1 [compound 78, 3-[3-(Cyclobutoxy)-4-methoxy-phenyl]-N-[2-[4-(3-methoxyazetidine-1-carbonyl)phenyl]ethyl]-1,2,4-oxadiazole-5-carboxamide] | 2.9 |  | 
COc1ccc(-c2noc(C(=O)NC(C#N)Cc3ccc(C(=O)N4CCC4)cc3)n2)cc1OC (stereo not drawn) [compound 33, N-(2-(4-(Azetidine-1-carbonyl)phenyl)-1-cyanoethyl)-3-(3,4-dimethoxyphenyl)-1,2,4-oxadiazole-5-carboxamide] | 2.1 | 2.8 | 
COc1ccc(-c2noc(C(=O)NCCc3ccc(C(N)=O)cc3)n2)cc1OC [compound 11, N-[2-(4-Carbamoylphenyl)ethyl]-3-(3,4-dimethoxyphenyl)-1,2,4-oxadiazole-5-carboxamide] | 1.7 | 2.9 | 
COc1ccc(-c2noc(C(=O)NCCc3ccc(C(=O)N4CCC4)cc3)n2)cc1OC [compound 14, N-[2-[4-(Azetidine-1-carbonyl)phenyl]ethyl]-3-(3,4-dimethoxyphenyl)-1,2,4-oxadiazole-5-carboxamide] | 2.1 | 7.1 | 
COc1ccc(-c2noc(C(=O)NCCc3ccc(C(=O)O)cc3)n2)cc1OC [compound 6, 4-[2-[[3-(3,4-Dimethoxyphenyl)-1,2,4-oxadiazole-5-carbonyl]amino]ethyl]benzoic Acid] |  | 0.6 | 
COc1ccc(-c2noc(C(=O)NCCc3ccc(C(=O)N4CC(OC)C4)cc3)n2)cc1OC1CC1 [compound 79, 3-(3-Cyclopropoxy-4-methoxyphenyl)-N-(4-(3-methoxyazetidine-1-carbonyl)phenethyl)-1,2,4-oxadiazole-5-carboxamide] | 2.6 | 4.6 | 
O=C(NCCc1ccc(C(=O)N2CCC2)cc1)c1nc(-c2ccc3cc[nH]c3c2)no1 [compound 65, N-(4-(Azetidine-1-carbonyl)phenethyl)-3-(1H-indol-6-yl)-1,2,4-oxadiazole-5-carboxamide] | 2.3 | 4.4 | 
COc1ccc(CCNC(=O)c2nc(-c3ccccc3)no2)cc1OC [compound 107] | 2.8 |  | 
COc1ccc(-c2nc(C(=O)NCCc3ccccc3)no2)cc1OC [compound 90, 5-(3,4-Dimethoxyphenyl)-N-phenethyl-1,2,4-oxadiazole-3-carboxamide] | 2.9 |  | 
O=C(NCCc1ccc(C(=O)N2CCC2)cc1)c1nc(-c2ccc3ccoc3c2)no1 [compound 64, N-(4-(Azetidine-1-carbonyl)phenethyl)-3-(benzofuran-6-yl)-1,2,4-oxadiazole-5-carboxamide] | 2.5 | 7 | 
O=C(NCCc1ccccc1)c1nc(-c2ccccc2)no1 [compound 4, 3-Phenyl-N-(2-phenylethyl)-1,2,4-oxadiazole-5-carboxamide] | 3.2 |  | 
COc1ccc(-c2noc(C(=O)NCCN3CCOCC3)n2)cc1OC [compound 108] | 1.4 |  | 
COc1ccc(-c2noc(C(=O)NC(C#N)Cc3ccc(C(=O)N4CC5(COC5)C4)cc3)n2)cc1OC (stereo not drawn) [compound 44, N-(2-(4-(2-Oxa-6-azaspiro[3.3]heptane-6-carbonyl)phenyl)-1-cyanoethyl)-3-(3,4-dimethoxyphenyl)-1,2,4-oxadiazole-5-carboxamide] | 2.1 | 0.6 | AUC0–480 ([2]; PO 10 mg/kg): 5 µg·min/mL; Cmax ([2]; PO 10 mg/kg): 56 ng/mL; Tmax ([2]; PO 10 mg/kg): 300 min
COc1cccc(CCNC(=O)c2nc(-c3ccc(OC)c(OC)c3)no2)c1 [compound 19, 3-(3,4-Dimethoxyphenyl)-N-[2-(3-methoxyphenyl)ethyl]-1,2,4-oxadiazole-5-carboxamide] | 2.9 |  | 
COc1ccc(-c2noc(C(=O)NCCc3ccc(C(=O)N4CC(OC)C4)cc3)n2)cc1OC [compound 15, 3-(3,4-Dimethoxyphenyl)-N-(4-(3-methoxyazetidine-1-carbonyl)phenethyl)-1,2,4-oxadiazole-5-carboxamide] | 2.1 |  | AUC0–480 ([2]; IV 3 mg/kg): 56 µg·min/mL; T1/2 ([2]; IV 3 mg/kg): 18 min; Vdss ([2]; IV 3 mg/kg): 1.1 L/kg; AUC0–480 ([2]; PO 200 mg/kg): 48 µg·min/mL; Cmax ([2]; PO 200 mg/kg): 151 ng/mL; F ([2]; PO 200 mg/kg): 1.5%; Tmax ([2]; PO 200 mg/kg): 120 min
COc1ccc(-c2noc(C(=O)NCCc3ccc(C(=O)N4CC(OC)C4)cc3)n2)cc1OCC1(O)CC1 [compound 80, 3-(3-((1-Hydroxycyclopropyl)methoxy)-4-methoxyphenyl)-N-(4-(3-methoxyazetidine-1-carbonyl)phenethyl)-1,2,4-oxadiazole-5-carboxamide] |  |  | AUC0–480 ([2]; IV 3 mg/kg): 81 µg·min/mL; T1/2 ([2]; IV 3 mg/kg): 24 min; Vdss ([2]; IV 3 mg/kg): 0.9 L/kg; AUC0–480 ([2]; PO 10 mg/kg): 4 µg·min/mL; Cmax ([2]; PO 10 mg/kg): 61 ng/mL; F ([2]; PO 10 mg/kg): 1.5%; Tmax ([2]; PO 10 mg/kg): 30 min

Structure (SMILES) | CHI-logDpH7.4 [1] | Papp (in vitro) [×10⁻⁶ cm/s] | also measured
O=C(NCCc1ccc(C(=O)N2CCC2)cc1)c1nc(-c2ccc3nc[nH]c3c2)no1 [compound 63, N-(4-(Azetidine-1-carbonyl)phenethyl)-3-(1H-benzo[d]imidazol-6-yl)-1,2,4-oxadiazole-5-carboxamide] | 1.3 | 0.7 | 
COc1cc(-c2noc(C(=O)NCCc3ccc(C(=O)N4CCC4)cc3)n2)ccc1F [compound 62, N-(4-(Azetidine-1-carbonyl)phenethyl)-3-(4-fluoro-3-methoxyphenyl)-1,2,4-oxadiazole-5-carboxamide] | 2.6 |  | 
COc1ccc(-c2noc(C(=O)NC(C#N)Cc3ccccc3)n2)cc1OC (stereo not drawn) [compound 38, N-(1-Cyano-2-phenylethyl)-3-(3,4-dimethoxyphenyl)-1,2,4-oxadiazole-5-carboxamide] | 3.1 | 7.2 | 
COc1ccc(-c2noc(C(=O)NCCc3ccc(C(=O)N4CC(F)(F)C4)cc3)n2)cc1OC [compound 17, N-(4-(3,3-Difluoroazetidine-1-carbonyl)phenethyl)-3-(3,4-dimethoxyphenyl)-1,2,4-oxadiazole-5-carboxamide] | 2.6 | 6.3 | 
COc1ccc(-c2noc(C(=O)NC(C#N)Cc3ccc(C(=O)N4CC(OC)C4)cc3)n2)cc1OCC1(O)CC1 (stereo not drawn) [compound 45, N-[1-Cyano-2-[4-(3-methoxyazetidine-1-carbonyl)phenyl]ethyl]-3-[3-[(1-hydroxycyclopropyl)methoxy]-4-methoxyphenyl]-1,2,4-oxadiazole-5-carboxamide] |  |  | solubility (physchem): 152 µM (≈ 83.2 µg/mL)
COc1ccc(-c2noc(C(=O)NCCc3ccc(C(=O)N4CCC4)nc3)n2)cc1OC [compound 25, N-(2-(6-(Azetidine-1-carbonyl)pyridin-3-yl)ethyl)-3-(3,4-dimethoxyphenyl)-1,2,4-oxadiazole-5-carboxamide] | 1.9 | 5.4 | 
CNC(=O)c1ccc(CCNC(=O)c2nc(-c3ccc(OC)c(OC)c3)no2)cc1 [compound 12, 3-(3,4-Dimethoxyphenyl)-N-[2-[4-(methylcarbamoyl)phenyl]ethyl]-1,2,4-oxadiazole-5-carboxamide] | 1.8 | 4.8 | 
COc1ccc(CCNC(=O)c2nc(-c3ccc(OC)c(OC)c3)no2)cc1OC [compound 50, 3-(3,4-dimethoxyphenyl)-N-[2-(3,4-dimethoxyphenyl)ethyl]-1,2,4-oxadiazole-5-carboxamide] | 2.5 | 7.4 | 
COc1ccc(-c2noc(C(=O)NCCc3ccccc3)n2)cc1OC [compound 106] |  |  | solubility (physchem): 51 µM (≈ 18 µg/mL)
COc1ccc(-c2noc(C(=O)NCCc3cccnc3)n2)cc1OC [compound 5, 3-(3,4-Dimethoxyphenyl)-N-[2-(3-pyridyl)ethyl]-1,2,4-oxadiazole-5-carboxamide] | 1.8 | 7.7 | 
COc1ccc(-c2noc(C(=O)NCC(C)(C)c3ccccc3)n2)cc1OC [compound 7, 3-(3,4-Dimethoxyphenyl)-N-(2-methyl-2-phenyl-propyl)-1,2,4-oxadiazole-5-carboxamide] | 3.7 |  | 
COc1ccc(-c2noc(C(=O)NC[C@H](C)c3ccccc3)n2)cc1OC [compound 8, 3-(3,4-Dimethoxyphenyl)-N-[(2R)-2-phenylpropyl]-1,2,4-oxadiazole-5-carboxamide] | 3.3 | 5.5 | 
COc1ccc(-c2noc(CNCCc3ccccc3)n2)cc1OC [compound 53, N-[[3-(3,4-Dimethoxyphenyl)-1,2,4-oxadiazol-5-yl]methyl]-2-phenyl-ethanamine] | 2.9 |  | 
COc1cccc(-c2noc(C(=O)NCCc3ccc(C(=O)N4CCC4)cc3)n2)c1 [compound 67, N-(4-(Azetidine-1-carbonyl)phenethyl)-3-(3-methoxyphenyl)-1,2,4-oxadiazole-5-carboxamide] | 2.4 | 10.1 | 
O=C(NCCc1ccc(C(=O)N2CCC2)cc1)c1nc(-c2ccc3cn[nH]c3c2)no1 [compound 66, N-(4-(Azetidine-1-carbonyl)phenethyl)-3-(1H-indazol-6-yl)-1,2,4-oxadiazole-5-carboxamide] | 1.6 | 5.5 | 
COc1ccc(-c2n[nH]c(C(=O)NCCc3ccc(C(=O)N4CCC4)cc3)n2)cc1OC [compound 101, N-(4-(Azetidine-1-carbonyl)phenethyl)-3-(3,4-dimethoxyphenyl)-1H-1,2,4-triazole-5-carboxamide] | 1.3 |  | 
COc1ccc(-c2noc(C(=O)NCCc3ccc(C(=O)N4CCC4)cc3)n2)cc1F [compound 61, N-(4-(Azetidine-1-carbonyl)phenethyl)-3-(3-fluoro-4-methoxyphenyl)-1,2,4-oxadiazole-5-carboxamide] | 2.6 |  | 
